This data set relates to rodent carcinogenicity bioassays, tumor incidence. Kind of data set: CCRIS carcinogenicity studies. To be noted: Dose: 0, Dose: 0. The essentials: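 Archive of carcinogenicity, mutagenicity, tumor promotion and tumor inhibition results drawn from journals, NCI reports and other sources, expert-reviewed; covers 1985-2011 and is no longer updated.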

The source made the active and inactive calls. How the calls were made is not given here. Where a SMILES comes first, the peptide text is derived from it.

With `C=C(C#N)C(=O)OCC(C)C`, the carcinogen call is, setting by setting: (Species: RAT, Strain/Sex: F344/FEMALE, Route: IMPLANT, 10, 100 µL INTO VENTRAL LIVER CAPSULE ONCE (STUDY DURATION: 2 YR), 10, 100 µL INTO VENTRAL LIVER CAPSULE ONCE (STUDY DURATION: 2 YR), Tumor Site: Type of Lesion: BODY CAVITY: SARCOMA) “active; positive”; (Species: RAT, Strain/Sex: F344/MALE, Route: IMPLANT, 10, 100 µL INTO VENTRAL LIVER CAPSULE ONCE (STUDY DURATION: 2 YR), 10, 100 µL INTO VENTRAL LIVER CAPSULE ONCE (STUDY DURATION: 2 YR), Tumor Site: Type of Lesion: BODY CAVITY: SARCOMA) “active; positive”.

Turning to `C=C(C)c1ccccc1`, the carcinogen call by setting is: (Species: Mouse, Strain/Sex: B6C3F1/Female (50/group), Route: Inhalation, 100, 300, 600 ppm for 6 hr/d, 5 d/wk, except holidays, for 105 wk, 100, 300, 600 ppm for 6 hr/d, 5 d/wk, except holidays, for 105 wk, Tumor Site: Type of Lesion: Liver: hepatocelllular carcinoma (3/50, 9/50, 6/50, 18/50), hepatocellular adenoma and carcinoma combined (13/50, 26/50) “active; positive (ntp reports as clear evidence)”; (Species: Mouse, Strain/Sex: B6C3F1/Male (50/group), Route: Inhalation, 100, 300, 600 ppm for 6 hr/d, 5 d/wk, except holidays, for 105 wk, 100, 300, 600 ppm for 6 hr/d, 5 d/wk, except holidays, for 105 wk, Tumor Site: Type of Lesion: Liver: hepatocellular adenoma and carcinoma combined (28/50, 36/50, 33/50, 37/50 (considered equivocal))) “inactive; negative; p value not significant (ntp reports as equivocal evidence)”; (Species: Rat, Strain/Sex: F344/N / Female (50/group), Route: Inhalation, 100, 300, 1000 ppm for 6 hr/d, 5 d/wk, except holidays, for 105 wk, 100, 300, 1000 ppm for 6 hr/d, 5 d/wk, except holidays, for 105 wk) “inactive; negative”; (Species: Rat, Strain/Sex: F344/N / Male (50/group), Route: Inhalation, 100, 300, 1000 ppm for 6 hr/d, 5 d/wk, except holidays, for 105 wk, 100, 300, 1000 ppm for 6 hr/d, 5 d/wk, except holidays, for 105 wk, Tumor Site: Type of Lesion: Kidney: renal tubule adenoma and carcinoma combined (0/50, 0/50, 3/50, 7/50 (single and step sections)) Mononuclear cell) “active; positive (ntp reports as some evidence)”.

For the compound `CC(C)([CH2][Sn]([CH2]C(C)(C)c1ccccc1)([CH2]C(C)(C)c1ccccc1)[O][Sn]([CH2]C(C)(C)c1ccccc1)([CH2]C(C)(C)c1ccccc1)[CH2]C(C)(C)c1ccccc1)c1ccccc1`, the carcinogen call by setting is: (Species: Mouse, Strain/Sex: Unspecified strain/Female (96/Control group; 48/Experimental group), Route: Oral, 50, 100, 300, 600 ppm of 97% fenbutatin oxide in the diet for 18 mo, study duration 18 mo, 50, 100, 300, 600 ppm of 97% fenbutatin oxide in the diet for 18 mo, study duration 18 mo) “inactive; negative”; (Species: Mouse, Strain/Sex: Unspecified strain/Male (96/Control group; 48/Experimental group), Route: Oral, 50, 100, 300, 600 ppm of 97% fenbutatin oxide in the diet for 18 mo, study duration 18 mo, 50, 100, 300, 600 ppm of 97% fenbutatin oxide in the diet for 18 mo, study duration 18 mo) “inactive; negative”; (Species: Rat, Strain/Sex: Carworth Farm E/Female (96/Control group; 48/Experimental group), Route: Oral, 50, 100, 300, 600 ppm of 97% fenbutatin oxide in the diet for 2 yr, study duration 2 yr, 50, 100, 300, 600 ppm of 97% fenbutatin oxide in the diet for 2 yr, study duration 2 yr) “inactive; negative”; (Species: Rat, Strain/Sex: Carworth Farm E/Male (96/Control group; 48/Experimental group), Route: Oral, 50, 100, 300, 600 ppm of 97% fenbutatin oxide in the diet for 2 yr, study duration 2 yr, 50, 100, 300, 600 ppm of 97% fenbutatin oxide in the diet for 2 yr, study duration 2 yr) “inactive; negative”.

As for `CN(N=O)C(CCCO)c1cccnc1` (centres undefined), under “Species: MOUSE, Strain/Sex: STRAIN-A/FEMALE, Route: INTRAPERITONEAL, 200 UMOL TOTAL DOSE ADMINISTERED IN SUBDOSES 3/WK FOR 7 WK (STUDY DURATION: 37 WK)”, the carcinogen call is “inactive; negative”.

As to `Cn1c(NO)nc2ncc(-c3ccccc3)cc21`, the carcinogen call (Species: RAT, Strain/Sex: ACI/SEG/MALE, Route: INTRAPERITONEAL, 50 UMOL/KG BW 2X/WK FOR 10 WK BEGINNING AT 3 D OF AGE (STUDY DURATION: 68 WK)) is “inactive; negative”.

For `OCCOCCO`, the carcinogen call was “inactive; negative” (Species: RAT, Strain/Sex: F344/FEMALE, Route: ORAL, 1.25, 2.5% IN DRINKING WATER FOR 108 WK (STUDY DURATION: 108 WK), 1.25, 2.5% IN DRINKING WATER FOR 108 WK (STUDY DURATION: 108 WK)) and “inactive; negative” (Species: RAT, Strain/Sex: F344/MALE, Route: ORAL, 1.25, 2.5% IN DRINKING WATER FOR 108 WK (STUDY DURATION: 108 WK), 1.25, 2.5% IN DRINKING WATER FOR 108 WK (STUDY DURATION: 108 WK)).

Regarding `COC(=O)[C@H](Cc1ccccc1)NC(=O)[C@@H](N)CC(=O)O` (H-Asp-Phe-OMe), the carcinogen call runs as follows: (Species: MOUSE, Strain/Sex: SWISS/FEMALE, Route: INTRAVESICULAR, 4-4.4 MG IN CHOLESTEROL PELLET (STUDY DURATION: 26 WK)) “inactive; negative”; (Species: MOUSE, Strain/Sex: SWISS/FEMALE, Route: INTRAVESICULAR, 4-4.4 MG IN CHOLESTEROL PELLET (STUDY DURATION: 56 WK)) “inactive; negative”.

On to `Cc1cc(O)c2c(c1)C(=O)c1cc(O)cc(O)c1C2=O`, for which the carcinogen call runs as follows: (Species: MOUSE, Strain/Sex: B6C3F1/FEMALE, Route: ORAL, 312, 625, 1250 PPM IN DIET FOR 105 WK (STUDY DURATION: 105 WK), 312, 625, 1250 PPM IN DIET FOR 105 WK (STUDY DURATION: 105 WK)) “inactive; negative”; (Species: MOUSE, Strain/Sex: B6C3F1/MALE, Route: ORAL, 160, 312, 625 PPM IN DIET FOR 105 WK (STUDY DURATION: 105 WK), 160, 312, 625 PPM IN DIET FOR 105 WK (STUDY DURATION: 105 WK), Tumor Site: Type of Lesion: KIDNEY: RENAL TUBULE ADENOMA, RENAL TUBULE CARCINOMA, RENAL TUBULE ADENOMA OR CARCINOMA) “equivocal”; (Species: RAT, Strain/Sex: F344/FEMALE, Route: ORAL, 280, 830, 2500 PPM IN DIET FOR 105 WK (STUDY DURATION: 105 WK), 280, 830, 2500 PPM IN DIET FOR 105 WK (STUDY DURATION: 105 WK), Tumor Site: Type of Lesion: ZYMBAL GLAND: CARCINOMA) “equivocal”; (Species: RAT, Strain/Sex: F344/MALE, Route: ORAL, 280, 830, 2500 PPM IN DIET FOR 105 WK (STUDY DURATION: 105 WK), 280, 830, 2500 PPM IN DIET FOR 105 WK (STUDY DURATION: 105 WK)) “inactive; negative”.

As to `Nc1nc(=S)c2ncn([C@H]3C[C@H](O)[C@@H](CO)O3)c2[nH]1`, the carcinogen call (Species: RAT, Strain/Sex: SPRAGUE-DAWLEY/FEMALE, Route: INTRAPERITONEAL, 3.5, 7 MG/KG FOR 52 WK (STUDY DURATION: 78 WK), 3.5, 7 MG/KG FOR 52 WK (STUDY DURATION: 78 WK), Tumor Site: Type of Lesion: EAR (CANAL): CARCINOMA, NOS OR SQUAMOUS CELL CARCINOMA) was “active; positive” and the carcinogen call (Species: RAT, Strain/Sex: SPRAGUE-DAWLEY/MALE, Route: INTRAPERITONEAL, 3.5, 7 MG/KG FOR 52 WK (STUDY DURATION: 78 WK), 3.5, 7 MG/KG FOR 52 WK (STUDY DURATION: 78 WK), Tumor Site: Type of Lesion: EAR (CANAL): CARCINOMA OR SQUAMOUS CELL CARCINOMA) is given as “equivocal”.

As for `COC(=O)N/N=C/c1c[n+]([O-])c2ccccc2[n+]1[O-]`, the carcinogen call is, setting by setting: (Species: RAT, Strain/Sex: WISTAR/FEMALE, Route: ORAL, 50, 100, 250, 500 PPM IN DIET FOR 12 MO (STUDY DURATION: 12 MO), 50, 100, 250, 500 PPM IN DIET FOR 12 MO (STUDY DURATION: 12 MO), Tumor Site: Type of Lesion: LIVER: HEPATOCELLULAR CARCINOMA) “active; positive”; (Species: RAT, Strain/Sex: WISTAR/MALE, Route: ORAL, 50, 100, 250, 500 PPM IN DIET FOR 12 MO (STUDY DURATION: 12 MO), 50, 100, 250, 500 PPM IN DIET FOR 12 MO (STUDY DURATION: 12 MO), Tumor Site: Type of Lesion: LIVER: HEPATOCELLULAR CARCINOMA) “active; positive”.

The record behind these values is PubChem BioAssay AID1259411 (Chemical Carcinogenesis Research Information System (CCRIS), 2018).
